Measured values as given in ChEMBL document CHEMBL1157393, “Selective inhibition of aromatase by a dihydroisocoumarin from Xyris pterygoblephara” (J Nat Prod, 2008).
Active and inactive are the calls of the source. The calls are words filed in the database; no cut-off is given here.

What was measured:
Cytochrome P450 3A4 = Cytochrome P450 3A4 (Homo sapiens, UniProt P08684); assay: Inhibition of CYP3A4; type: ADME
Lu1 = assay: Antiproliferative activity against human LU1 cells assessed as cell growth upto 65 uM after 4 days by sulforhodamine B assay; type: functional, cell-based
MCF7 = assay: Antiproliferative activity against human MCF7 cells assessed as cell growth after 4 days by sulforhodamine B assay; type: functional, cell-based; settings: MCF7, 96 h
Cytochrome P450 1A1 = biological target: T1, Cytochrome P450 1A1 (Homo sapiens, UniProt P04798); assay: Inhibition of CYP1A1; type: ADME
T1 sequence (P04798 whole entry): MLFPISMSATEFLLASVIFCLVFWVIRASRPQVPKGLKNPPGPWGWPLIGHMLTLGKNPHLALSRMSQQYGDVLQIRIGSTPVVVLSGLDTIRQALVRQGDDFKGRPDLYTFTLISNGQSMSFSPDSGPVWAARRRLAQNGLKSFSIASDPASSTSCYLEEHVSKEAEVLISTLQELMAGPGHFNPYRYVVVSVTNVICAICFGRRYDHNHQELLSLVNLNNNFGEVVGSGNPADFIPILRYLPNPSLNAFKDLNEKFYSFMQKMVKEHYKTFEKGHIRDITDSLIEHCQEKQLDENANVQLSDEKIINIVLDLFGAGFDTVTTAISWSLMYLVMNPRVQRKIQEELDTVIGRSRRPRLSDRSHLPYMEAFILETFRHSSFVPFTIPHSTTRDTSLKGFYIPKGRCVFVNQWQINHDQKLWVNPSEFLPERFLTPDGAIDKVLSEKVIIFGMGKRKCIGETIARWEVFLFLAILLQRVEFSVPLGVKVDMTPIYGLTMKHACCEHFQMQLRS

Cytochrome P450 2C8 = biological target: T2, Cytochrome P450 2C8 (Homo sapiens, UniProt P10632); assay: Inhibition of CYP2C8; type: ADME
T2 sequence (P10632 whole entry): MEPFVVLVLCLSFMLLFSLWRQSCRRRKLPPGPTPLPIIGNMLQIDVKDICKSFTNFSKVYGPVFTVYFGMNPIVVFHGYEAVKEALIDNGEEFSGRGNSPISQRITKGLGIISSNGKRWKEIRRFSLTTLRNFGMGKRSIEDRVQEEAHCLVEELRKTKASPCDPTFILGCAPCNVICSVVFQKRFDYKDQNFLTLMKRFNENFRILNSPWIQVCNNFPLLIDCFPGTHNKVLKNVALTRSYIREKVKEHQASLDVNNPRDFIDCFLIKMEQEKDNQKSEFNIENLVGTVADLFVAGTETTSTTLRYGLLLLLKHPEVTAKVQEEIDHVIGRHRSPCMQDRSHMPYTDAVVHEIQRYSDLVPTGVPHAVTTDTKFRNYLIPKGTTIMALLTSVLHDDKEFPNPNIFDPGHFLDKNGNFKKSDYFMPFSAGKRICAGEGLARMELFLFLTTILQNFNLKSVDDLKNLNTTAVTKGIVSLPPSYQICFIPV

LNCaP = assay: Antiproliferative activity against human LNCaP 1740 cells assessed as cell growth after 4 days by sulforhodamine B assay; type: functional, cell-based; settings: 96 h
HepG2 = assay: Antiproliferative activity against human HepG2 cells assessed as cell growth upto 65 uM after 4 days by sulforhodamine B assay; type: functional, cell-based
Aromatase = biological target: T3, Aromatase (Homo sapiens, UniProt P11511); assay: Inhibition of aromatase
T3 sequence (P11511 whole entry): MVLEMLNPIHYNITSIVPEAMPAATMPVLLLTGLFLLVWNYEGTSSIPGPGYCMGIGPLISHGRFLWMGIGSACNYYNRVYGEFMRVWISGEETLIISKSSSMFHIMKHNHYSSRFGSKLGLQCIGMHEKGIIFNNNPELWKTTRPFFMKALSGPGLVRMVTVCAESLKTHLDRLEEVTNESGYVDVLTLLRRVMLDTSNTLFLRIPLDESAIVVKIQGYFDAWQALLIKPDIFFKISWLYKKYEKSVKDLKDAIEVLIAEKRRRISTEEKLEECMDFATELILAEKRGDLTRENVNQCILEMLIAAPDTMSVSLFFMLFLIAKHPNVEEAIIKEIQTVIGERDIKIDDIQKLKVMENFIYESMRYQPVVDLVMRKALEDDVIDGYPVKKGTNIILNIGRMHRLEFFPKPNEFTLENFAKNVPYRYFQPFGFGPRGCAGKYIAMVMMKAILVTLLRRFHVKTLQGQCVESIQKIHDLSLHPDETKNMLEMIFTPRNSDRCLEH

Sequence of Cytochrome P450 3A4 (P08684 whole entry): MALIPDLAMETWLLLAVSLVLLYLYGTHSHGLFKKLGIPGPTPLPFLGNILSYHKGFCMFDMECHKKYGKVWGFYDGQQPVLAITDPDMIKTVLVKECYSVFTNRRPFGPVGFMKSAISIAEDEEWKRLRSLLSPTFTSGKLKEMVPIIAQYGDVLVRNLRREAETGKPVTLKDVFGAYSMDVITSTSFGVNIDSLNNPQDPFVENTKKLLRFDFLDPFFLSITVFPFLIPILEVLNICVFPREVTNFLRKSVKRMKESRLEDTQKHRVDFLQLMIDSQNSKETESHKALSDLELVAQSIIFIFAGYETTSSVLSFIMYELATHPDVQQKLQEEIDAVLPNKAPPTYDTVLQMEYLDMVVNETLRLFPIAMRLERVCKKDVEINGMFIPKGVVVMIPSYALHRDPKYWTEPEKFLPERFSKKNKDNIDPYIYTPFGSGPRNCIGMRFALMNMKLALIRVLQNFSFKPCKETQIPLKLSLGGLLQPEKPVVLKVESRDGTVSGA

| IC50 (Cytochrome P450 3A4) | IC50 (MCF7) | IC50 (Cytochrome P450 1A1) | IC50 (Cytochrome P450 2C8) | IC50 (LNCaP) | IC50 (Aromatase) | SMILES | Activity (Lu1) | Activity (HepG2) |
| --- | --- | --- | --- | --- | --- | --- | --- | --- |
| > 65 µM | 66.9 µM | 38 µM | > 65 µM | 57.5 µM |  | CCCCC[C@H]1OC(=O)c2ccc(OC)cc2[C@H]1OC(C)=O | inactive | inactive |
|  |  |  |  |  | 5 µM | C[C@@H]1O[C@@H](O[C@H]2[C@H](Oc3cc(O)c4c(c3)O[C@H](c3ccc(O)cc3)CC4=O)O[C@H](CO)[C@@H](O)[C@@H]2O)[C@H](O)[C@H](O)[C@H]1O [NARINGIN] |  |  |
